From patent US9682955B2, “Quinazoline derivatives useful as CB-1 inverse agonists” (Janssen Pharmaceutica NV, priority 2014, dated 2017)

Columns and labels:
[1] = target: Human CB1R (Cannabanoid receptor 1) (Homo sapiens (Human), UniProt P21554); test: CB-1 in vitro cAMP assay (HTRF); type: cell-based; settings: mean where tested more than once
Text: (§1) CB1 and CB2 receptors are Gi-coupled GPCR. Activation of CB1 and CB2 receptors results in a decrease in cAMP production. An inverse agonist of the CB1 or CB2 receptor results in the opposite effect, an increase of cAMP production. The principle of this assay is based on HTRF® technology (Homogeneous Time-Resolved Fluorescence). The method is a competitive immunoassay between native cAMP produced by cells and the cAMP labeled with the fluorophore d2. The tracer binding is quantified by a Mab anti-cAMP labeled with Eu3+TBP-NHS Cryptate (supplied as part of the assay kit). The specific signal (i.e. energy transfer) is inversely proportional to the concentration of cAMP in the standard or sample.
(§2) Human CB1R (Cannabanoid receptor 1) was stably transfected in HEK-293 cells (DiscoveRx, cat: 93-0200C1). Human CB2R (Cannabanoid receptor 2) was stably transfected in HEK-293 cells (DiscoveRx, cat: 93-0201C1). Cell cultures were maintained in media: DMEM (Invitrogen Cat#12430-054) supplemented with 10% HI FBS (Invitrogen Cat#16140-071), 1% L-glutamine (Invitrogen Cat#25030-081), 0.2 mg/ml Hygromycin B (Invitrogen Cat#10687-010), 600 μg/mL G418 (Invitrogen Cat#10131-035), and 1× Penn/Strep (Invitrogen 15140-122). After cell expansion, aliquots were cryo-stored in media containing 5% DMSO (Pierce Cat#20684).
(§3) One day prior to experiments media was warmed to 37° C. and the cryo-stored cells were thawed in a 37° C. water bath. The cells were then added to media (10× volume) and the mixture was centrifugated at 1000 RPM for 5 min. The supernate was removed and the cells were re-suspended in media. A sample of the cell suspension was evaluated on a Cedex XS automated cell counter (Innovatis Systems) to determine viable cells/ml. Additional media was added to the cells to achieve a final cell density of 4E5 cells/mL. The cells were then plated into 384 well PDL white solid bottom plates (Greiner, Cat#781945) at 20 μL per well using a Multidrop (Thermo Scientific). Cells were removed from Row P (location of cAMP standards). Two columns of cells were plated into a clear bottom 384 well PDL coated plate (Greiner, Cat#781944) to view confluence the day of the assay. The cell plates were lidded and stored for 15 minutes in a hood, then transferred to an incubator (37° C., 5% CO2, 95% humidity) overnight.
(§4) DMSO was added to all wells of 384 well V bottom polystyrene plate (Greiner, Cat#781280) except to columns 1 and 13, rows O and P and wells M13-M23 and N13-N23. Test compounds (60 μL, 10 mM) were added to Column 1 and 13 (A1 through N1 and A13 through L13). Test compounds were serially diluted 1/3 by transferring and mixing 20 μl sample with 40 μL DMSO.
(§5) DMSO (40 μL) was added to wells of 384 well V bottom polystyrene plate: O2 through O11, M14 through M23, N14 through N23, and O14 through O23. AM630 (also known as [6-iodo-2-methyl-1-[2-(4-morpholinyl)ethyl]-1H-indol-3-yl](4-methoxyphenyl)-methanone, Cayman Chemical, Cat#10006974) (60 μL, 10 mM) was added to O1; and 1-(2,4-dichlorophenyl)-7-[(4-fluorophenyl)methylene]-4,5,6,7-tetrahydro-N-1-piperidinyl-1H-indazole-3-carboxamide (60 μL, 10 mM) was added to N13. The control was serially diluted 1/3 by transferring and mixing 20 μl sample with 40 μL DMSO. This process resulted 11 doses per control, 10 mM to […].
(§6) Cells plated the day prior to the assay in clear bottom plates were viewed on an inverse microscope to ensure confluency in the range of 60-75%. […]

[2] = target: Human CB2R (Cannabanoid receptor 2) (Homo sapiens (Human), UniProt P34972); test: CB-2 in vitro cAMP assay (HTRF); type: cell-based; settings: mean where tested more than once
Human CB2R (Cannabanoid receptor 2), sequence (P34972 whole entry): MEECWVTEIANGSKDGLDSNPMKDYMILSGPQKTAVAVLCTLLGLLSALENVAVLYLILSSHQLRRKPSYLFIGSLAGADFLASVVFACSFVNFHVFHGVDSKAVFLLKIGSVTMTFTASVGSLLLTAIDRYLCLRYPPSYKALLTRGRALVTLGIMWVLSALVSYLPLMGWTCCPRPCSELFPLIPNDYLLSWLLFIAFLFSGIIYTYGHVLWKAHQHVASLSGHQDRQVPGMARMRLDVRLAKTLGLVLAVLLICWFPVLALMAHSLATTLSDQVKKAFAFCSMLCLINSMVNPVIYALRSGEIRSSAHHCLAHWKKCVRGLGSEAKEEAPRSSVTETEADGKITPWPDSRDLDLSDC
Text: as §1, §2, §3, §4, §5, §6

Human CB1R (Cannabanoid receptor 1), sequence (P21554 whole entry): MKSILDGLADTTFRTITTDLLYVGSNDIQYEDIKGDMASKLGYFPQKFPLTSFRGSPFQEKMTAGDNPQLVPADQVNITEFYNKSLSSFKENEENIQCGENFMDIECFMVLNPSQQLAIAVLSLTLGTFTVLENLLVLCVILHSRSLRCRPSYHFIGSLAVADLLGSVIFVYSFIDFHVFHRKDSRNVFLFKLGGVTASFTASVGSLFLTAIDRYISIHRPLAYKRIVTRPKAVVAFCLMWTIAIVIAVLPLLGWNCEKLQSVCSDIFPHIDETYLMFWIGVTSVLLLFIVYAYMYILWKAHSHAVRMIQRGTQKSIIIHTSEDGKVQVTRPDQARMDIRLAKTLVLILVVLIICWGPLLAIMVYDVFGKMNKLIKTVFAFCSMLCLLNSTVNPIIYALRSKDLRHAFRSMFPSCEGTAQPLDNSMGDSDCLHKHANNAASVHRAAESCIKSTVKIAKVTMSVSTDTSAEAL

SMILES | EC50 [1] | EC50 [2]
COC(=O)CS(=O)(=O)N1CCC(Nc2ncnc3ccc(C(c4ccc(Cl)cc4)c4ccc(Cl)cc4)cc23)CC1 [Compound #110, Methyl 2-((4-((6-(bis(4-chlorophenyl)methyl)quinazolin-4-yl)amino)piperidin-1-yl)sulfonyl)acetate] | 0.041 µM | 3.22 µM
COC(=O)c1ccc(CN2CCC(Nc3ncnc4ccc(C(c5ccc(Cl)cc5)c5ccc(Cl)cc5)cc34)CC2)cc1 [Compound #43, Methyl 4-((4-((6-(bis(4-chlorophenyl)methyl)quinazolin-4-yl)amino)piperidin-1-yl)methyl)benzoate] | 0.059 µM | > 10 µM
O=S(=O)(N1CCC(Nc2nc(Cl)nc3ccc(C(c4ccc(Cl)cc4)c4ccc(Cl)cc4)cc23)CC1)C(F)(F)F [Compound 200] | 0.009 µM | 6.5 µM
O=C(NC(CO)(CO)CO)c1ccc(N2CCC(Nc3ncnc4ccc(C(c5ccc(Cl)cc5)c5ccc(Cl)cc5)cc34)CC2)cc1 [compound 42] | 0.18 µM | 0.216 µM
O=C(O)c1cccc(CCN2CCC(Nc3ncnc4ccc(C(c5ccc(Cl)cc5)c5ccc(Cl)cc5)cc34)CC2)c1 [Compound #13, 3-(2-(4-(6-(bis(4-chlorophenyl)methyl)quinazolin-4-ylamino)piperidin-1-yl)ethyl)benzoic acid] | 1.24 µM | 3.05 µM
NC(=O)c1ccc(N2CCC(Nc3ncnc4ccc(C(c5ccc(Cl)cc5)c5ccc(Cl)cc5)cc34)CC2)cc1 [Compound #90, 4-(4-((6-(bis(4-chlorophenyl)methyl)quinazolin-4-yl)amino)piperidin-1-yl)benzamide] | 0.034 µM | 0.461 µM
O=C(O)c1ccc(S(=O)(=O)N2CCC(Nc3ncnc4ccc(C(c5ccc(Cl)cc5)c5ccc(Cl)cc5)cc34)CC2)s1 [Compound #25, 5-((4-((6-(bis(4-chlorophenyl)methyl)quinazolin-4-yl)amino)piperidin-1-yl)sulfonyl)thiophene-2-carboxylic acid] | 0.009 µM | 0.278 µM
N#CC1(c2ccccc2)CCC(Nc2ncnc3ccc(C(c4ccc(Cl)cc4)c4ccc(Cl)cc4)cc23)CC1 (stereo not drawn) [Compound #118, 4-((6-(bis(4-chlorophenyl)methyl)quinazolin-4-yl)amino)-1-phenylcyclohexanecarbonitrile] | 0.011 µM | 0.196 µM
COC(=O)c1ccc(C(=O)N2CCC(Nc3ncnc4ccc(C(c5ccc(Cl)cc5)c5ccc(Cl)cc5)cc34)CC2)cc1 [Compound #73, methyl 4-(4-((6-(bis(4-chlorophenyl)methyl)quinazolin-4-yl)amino)piperidine-1-carbonyl)benzoate] | 0.014 µM | 4.43 µM
NCCCCOc1nc(NCc2cccc(C(F)(F)F)c2)c2cc(C(c3ccc(Cl)cc3)c3ccc(Cl)cc3)ccc2n1 [Compound #31, 2-(4-aminobutoxy)-6-(bis(4-chlorophenyl)methyl)-N-(3-(trifluoromethyl)benzyl)quinazolin-4-amine] | 0.077 µM | 4.12 µM
COc1cc(S(=O)(=O)N2CCC(Nc3ncnc4ccc(C(c5ccc(Cl)cc5)c5ccc(Cl)cc5)cc34)CC2)ccc1C(=O)O [Compound #22, 4-((4-((6-(bis(4-chlorophenyl)methyl)quinazolin-4-yl)amino)piperidin-1-yl)sulfonyl)-2-methoxybenzoic acid] | 0.023 µM | 0.28 µM
COCCOc1nc(NCc2ccc(C(F)(F)F)cc2)c2cc(C(c3ccc(Cl)cc3)c3ccc(Cl)cc3)ccc2n1 [Compound #91, 6-(bis(4-chlorophenyl)methyl)-2-(2-methoxyethoxy)-N-(4-(trifluoromethyl)benzyl)quinazolin-4-amine] | 0.03 µM | > 10 µM
O=S(=O)(N1CCC(Nc2nc(O)nc3ccc(C(c4ccc(Cl)cc4)c4ccc(Cl)cc4)cc23)CC1)C(F)(F)F [Compound #114, 6-(bis(4-chlorophenyl)methyl)-4-((1-((trifluoromethyl)sulfonyl)piperidin-4-yl)amino)quinazolin-2-ol] | 0.032 µM | 5.69 µM
O=C(NCCO)c1ccc(N2CCC(Nc3ncnc4ccc(C(c5ccc(Cl)cc5)c5ccc(Cl)cc5)cc34)CC2)cc1 [Compound #84, 4-(4-((6-(bis(4-chlorophenyl)methyl)quinazolin-4-yl)amino)piperidin-1-yl)-N-(2-hydroxyethyl)benzamide] | 0.026 µM | 0.326 µM
CCOC(=O)CCC(=O)N1CCC(Nc2ncnc3ccc(C(c4ccc(Cl)cc4)c4ccc(Cl)cc4)cc23)CC1 [Compound #81, Ethyl 4-(4-((6-(bis(4-chlorophenyl)methyl)quinazolin-4-yl)amino)piperidin-1-yl)-4-oxobutanoate] | 0.002 µM | 0.452 µM

Second part, the molecule after the results:

EC50 [1] | EC50 [2] | SMILES
0.025 µM | 1.8 µM | CCOC(=O)CC(=O)N1CCC(Nc2ncnc3ccc(C(c4ccc(Cl)cc4)c4ccc(Cl)cc4)cc23)CC1 [compound 89, ethyl 3-(4-(6-(bis(4-chlorophenyl)methyl)quinazolin-4-ylamino)piperidin-1-yl)-3-oxopropanoate]
0.02 µM | > 10 µM | COC(=O)c1ccc(CNc2ncnc3ccc(C(c4ccc(Cl)cc4)c4ccc(Cl)cc4)cc23)cc1 [compound 61, methyl 4-((6-(bis(4-chlorophenyl)methyl)quinazolin-4-ylamino)methyl)benzoate]
4 µM | 7.63 µM | O=C(O)c1cccc(CN2CCC(Nc3ncnc4ccc(C(c5ccc(Cl)cc5)c5ccc(Cl)cc5)cc34)C2)c1 (stereo not drawn) [compound 17, 3-((3-(6-(bis(4-chlorophenyl)methyl)quinazolin-4-ylamino)pyrrolidin-1-yl)methyl)benzoic acid]
4.82 µM | 4.71 µM | O=C(O)c1ccccc1CN1CCC(Nc2ncnc3ccc(C(c4ccc(Cl)cc4)c4ccc(Cl)cc4)cc23)CC1 [compound 21, 2-((4-(6-(bis(4-chlorophenyl)methyl)quinazolin-4-ylamino)piperidin-1-yl)methyl)benzoic acid]
0.173 µM | > 14 µM | CN(Cc1ccc(C(F)(F)F)cc1)c1ncnc2ccc(C(c3ccc(Cl)cc3)c3ccc(Cl)cc3)cc12 [Compound #132, 6-(bis(4-chlorophenyl)methyl)-N-methyl-N-(4-(trifluoromethyl)benzyl)quinazolin-4-amine]
0.004 µM | > 10 µM | O=S(=O)(c1ccccc1)N1CCC(Nc2ncnc3ccc(C(c4ccc(Cl)cc4)c4ccc(Cl)cc4)cc23)CC1 [compound 109, 6-(bis(4-chlorophenyl)methyl)-N-(1-(phenylsulfonyl)piperidin-4-yl)quinazolin-4-amine]
0.002 µM | 0.49 µM | FC(F)(F)CN1CCC(Nc2ncnc3ccc(C(c4ccc(Cl)cc4)c4ccc(Cl)cc4)cc23)CC1 [Compound #123, 6-(bis(4-chlorophenyl)methyl)-N-(1-(2,2,2-trifluoroethyl)piperidin-4-yl)quinazolin-4-amine]
0.083 µM | > 10 µM | COC(=O)c1cccc(N2CCC(Nc3ncnc4ccc(C(c5ccc(Cl)cc5)c5ccc(Cl)cc5)cc34)CC2)c1 [compound 97, methyl 3-(4-(6-(bis(4-chlorophenyl)methyl)quinazolin-4-ylamino)piperidin-1-yl)benzoate]
5.3 µM | > 10 µM | O=C(O)c1ccc(CNc2ncnc3ccc(C(c4ccc(Cl)cc4)c4ccc(Cl)cc4)cc23)cc1 [compound 60, 4-((6-(bis(4-chlorophenyl)methyl)quinazolin-4-ylamino)methyl)benzoic acid]
